Experimental data from patent publication US4418068A, “Antiestrogenic and antiandrugenic benzothiophenes” (Eli Lilly and Company, priority 1981, dated 1983).

Assays:
[1] = test system: estrogenic response of estradiol; assay: Antiestrogenic Test, immature rats (uterine weight); type: in vivo
Experimental: (§1) This test was conducted with immature 40-45 g. female rats, immature 11-13 g. mice, and adult ovariectomized mice. The rats were tested in groups of six, and mice in groups of ten. All of the laboratory animals were from standardized strains and were equilibrated to the laboratory before the test started. Each test was begun by administering the test compound daily for three days, as a subcutaneous injection or by oral gavage, as indicated below in the reports of individual experiments.
(§2) The test animals were treated for three days and sacrificed on the fourth day, and the uteri were removed, freed of extraneous tissue, and blotted with paper towels. The uteri were weighed to the nearest 0.1 mg.
(§3) The uterine weights are given, in mg., as the means of all of the organ weights of the animals in a group. Compounds are referred to by their example numbers above.
(§4) The same standardized types of laboratory animals which were used in the experiments described above were also used in these experiments. […] Untreated control animals were used in each experiment. […] The dosage and sacrifice schedule, and the method of determining uterine weights and reporting data, were the same as the methods described above under Test 1.

[2] = test system: androgen-stimulated prostate growth; assay: Anti-Androgen Test, immature male rats (ventral prostate weight); type: in vivo
Experimental: The animals used in this test were adult male rats having a body weight which averaged about 330 g. when the experiment ended. All of the animals to be used in the experiment were castrated by the scrotal route, and were held untreated for 3 days. On the fourth day, subcutaneous administration of 0.1 mg./day of an exogenous androgen, testosterone propionate, was begun, and was continued for seven consecutive days. An untreated control group of animals received injections of 0.1 ml./day of corn oil as a blank treatment. The compound of this invention was administered orally or subcutaneously to the treated animals in 0.1 ml. of corn oil, at the same time that the androgen was administered. The animals were sacrificed 24 hours after the last injection of testosterone propionate, the ventral prostate glands were removed and weighed, and the mean of the weights of each treatment group was reported.
This experiment was carried out in the same manner as Experiment A above, except that the test animals were immature male rats, weighing about 120 g. each at sacrifice. Each treatment group consisted of six or seven animals. All treatments in this experiment were administered by subcutaneous injection. The amount of the androgen administered was only 20 mcg./day because of the small size of the animals.
This experiment was also conducted in immature rats having average body weight of about 115 g. when the experiment ended. In other respects, the experiment was as described under Experiment B above. The treatment groups consisted of ten animals each, except for the androgen only group, of 16 animals, and the 5 mg./kg. group, of nine animals.

[3] = test system: estrogenic response; assay: Estrogenic Response Test, immature rats (uterine weight); type: in vivo, immature 40-45 g. female rats
Experimental: (§5) The first test reported below is used to determine the estrogenic potency of compounds. It is well known that many compounds having antiestrogenic activity also, typically, have estrogenic activity. As has been explained, estrogenic activity is a liability in an antiestrogen, and thus it is important to identify antiestrogens having a minimum amount of estrogenic activity. This test was conducted with immature 40-45 g. female rats, immature 11-13 g. mice, and adult ovariectomized mice. The rats were tested in groups of six, and mice in groups of ten. All of the laboratory animals were from standardized strains and were equilibrated to the laboratory before the test started. Each test was begun by administering the test compound daily for three days, as a subcutaneous injection or by oral gavage, as indicated below in the reports of individual experiments. Untreated control animals were included in each experiment, along with animals to which estradiol was administered subcutaneously. The estradiol-treated animals provided positive controls, showing the physiological effect of a potent estrogen on the individual group of animals used in the experiment. […] The test animals were treated for three days and sacrificed on the fourth day, and the uteri were removed, freed of extraneous tissue, and blotted with paper towels. The uteri were weighed to the nearest 0.1 mg. The tables below report the results of representative experiments. The doses of estradiol and of the compound of this invention are given as the total of the three daily doses. The uterine weights are given, in mg., as the means of all of the organ weights of the animals in a group. Compounds are referred to by their example numbers above.

[4] = test system: estrogenic response of estradiol; assay: Antiestrogenic Test, immature mice (uterine weight); type: in vivo; conditions: Experiment B, s.c. + estradiol 0.3 mcg.
Experimental: as §1, §2, §3, §4

[5] = test system: estrogenic response; assay: Estrogenic Response Test, mature ovariectomized mice (uterine weight); type: in vivo, adult ovariectomized mice; conditions: Experiment E, s.c.
Experimental: as §5

[6] = test system: estrogenic response of estradiol; assay: Antiestrogenic Test, mature ovariectomized mice (uterine weight); type: in vivo, adult ovariectomized mice; conditions: Experiment A, s.c. + estradiol 0.3 mcg.
Experimental: as §1, §2, §3, §4

## O=C(c1ccc(OCCN2CCCCC2)cc1)c1c(-c2ccc(O)cc2)sc2cc(O)ccc12 [Example 3, 6-hydroxy-2-(4-hydroxyphenyl)-3-[4-(2-piperidinoethoxy)benzoyl]benzo[b]thiophene]
[1]; Experiment C, 3 mg., oral + estradiol 0.3 mcg., s.c.
  Uterine weight: 30.6 mg
[1]; Experiment C, 3 mcg., oral + estradiol 0.3 mcg., s.c.
  Uterine weight: 55.0 mg
[1]; Experiment C, 30 mcg., oral + estradiol 0.3 mcg., s.c.
  Uterine weight: 46.7 mg
[1]; Experiment C, 300 mcg., oral + estradiol 0.3 mcg., s.c.
  Uterine weight: 31.3 mg
[1]; Experiment D, 3 mg., s.c. + estradiol 0.3 mcg.
  Uterine weight: 28.0 mg
[1]; Experiment D, 3 mcg., s.c. + estradiol 0.3 mcg.
  Uterine weight: 53.6 mg
[1]; Experiment D, 30 mcg., s.c. + estradiol 0.3 mcg.
  Uterine weight: 33.7 mg
[1]; Experiment D, 300 mcg., s.c. + estradiol 0.3 mcg.
  Uterine weight: 30.7 mg
[1]; Experiment E, 3 mg., s.c. + estradiol 0.09 mcg.
  Uterine weight: 31.0 mg
[1]; Experiment E, 3 mcg., s.c. + estradiol 0.09 mcg.
  Uterine weight: 42.5 mg
[1]; Experiment E, 30 mcg., s.c. + estradiol 0.09 mcg.
  Uterine weight: 35.8 mg
[1]; Experiment E, 300 mcg., s.c. + estradiol 0.09 mcg.
  Uterine weight: 33.7 mg
[1]; Experiment F, 3 mg., s.c. + estradiol 0.15 mcg.
  Uterine weight: 36.2 mg
[1]; Experiment F, 3 mcg., s.c. + estradiol 0.15 mcg.
  Uterine weight: 49.4 mg
[1]; Experiment F, 30 mcg., s.c. + estradiol 0.15 mcg.
  Uterine weight: 40.9 mg
[1]; Experiment F, 300 mcg., s.c. + estradiol 0.15 mcg.
  Uterine weight: 36.5 mg
[1]; Experiment G, 3 mg., s.c. + estradiol 3 mcg.
  Uterine weight: 30.2 mg
[1]; Experiment G, 3 mcg., s.c. + estradiol 3 mcg.
  Uterine weight: 71.9 mg
[1]; Experiment G, 30 mcg., s.c. + estradiol 3 mcg.
  Uterine weight: 42.2 mg
[1]; Experiment G, 300 mcg., s.c. + estradiol 3 mcg.
  Uterine weight: 33.7 mg
[1]; Experiment H, 3 mg., s.c. + estradiol 30 mcg.
  Uterine weight: 33.1 mg
[1]; Experiment H, 3 mcg., s.c. + estradiol 30 mcg.
  Uterine weight: 92.7 mg
[1]; Experiment H, 30 mcg., s.c. + estradiol 30 mcg.
  Uterine weight: 60.2 mg
[1]; Experiment H, 300 mcg., s.c. + estradiol 30 mcg.
  Uterine weight: 48.9 mg
[2]; Experiment B, 0.5 mg./kg./day s.c. + androgen 20 mcg./day
  Mean Prostate Weight: 33.8 mg
[2]; Experiment B, 0.5 mg./kg./day s.c. + androgen, animal with 54 mg. prostate excluded
  average prostate weight, one animal excluded: 30.5
[2]; Experiment B, 5 mg./kg./day s.c. + androgen 20 mcg./day
  Mean Prostate Weight: 36.6 mg
[2]; Experiment C, 0.05 mg./kg./day s.c. + androgen
  Mean Prostate Weight: 34.0 mg
[2]; Experiment C, 0.5 mg./kg./day s.c. + androgen
  Mean Prostate Weight: 31.1 mg
[2]; Experiment C, 5 mg./kg./day s.c. + androgen
  Mean Prostate Weight: 29.0 mg
[3]; Experiment A, total dose 3 mg., s.c.
  Uterine weight: 33.9 mg
[3]; Experiment A, total dose 3 mcg., s.c.
  Uterine weight: 47.7 mg
[3]; Experiment A, total dose 30 mcg., s.c.
  Uterine weight: 38.4 mg
[3]; Experiment A, total dose 300 mcg., s.c.
  Uterine weight: 35.9 mg
[3]; Experiment B, total dose 3 mcg., oral (first line)
  Uterine weight: 34.5 mg
[3]; Experiment B, total dose 30 mcg., oral
  Uterine weight: 34.4 mg
[3]; Experiment B, total dose 300 mcg., oral
  Uterine weight: 33.2 mg
[3]; Experiment B, total dose printed 3 mcg., oral (last line)
  Uterine weight: 34.4 mg
[4]; 3 mg.
  Uterine weight: 13.9 mg
[4]; 0.03 mcg.
  Uterine weight: 41.3 mg
[4]; 0.3 mcg.
  Uterine weight: 40.6 mg
[4]; 3 mcg.
  Uterine weight: 26.5 mg
[4]; 30 mcg.
  Uterine weight: 18.9 mg
[4]; 300 mcg.
  Uterine weight: 14.6 mg
[5]; total dose 3 mg.
  Uterine weight: 23.1 mg
[5]; total dose 0.3 mcg.
  Uterine weight: 18.2 mg
[5]; total dose 3 mcg.
  Uterine weight: 25.6 mg
[5]; total dose 30 mcg.
  Uterine weight: 26.2 mg
[5]; total dose 300 mcg.
  Uterine weight: 24.8 mg
[6]; 3 mg.
  Uterine weight: 21.3 mg
[6]; 0.3 mcg.
  Uterine weight: 54.9 mg
[6]; 3 mcg.
  Uterine weight: 48.7 mg
[6]; 30 mcg.
  Uterine weight: 31.1 mg
[6]; 300 mcg.
  Uterine weight: 22.1 mg
